Like-named read-outs stand apart in the source and are kept apart here.
How the values were obtained:
Format in all cases: cell-based, human
HaCaT cells [1] = assay: Hoechst 33342 fluorescent staining for morphological evaluation; conditions: 72 h
Experimental: After DHNA treatment, HaCaT cells were fixed in 4% paraformaldehyde for 30 min, washed with phosphate-buffered saline (PBS) and then stained with 2 μg/mL Hoechst 33342 (Molecular Probes, Eugene, OR, USA) for 15 min at room temperature in the dark. Morphology was evaluated using an Axiophot fluorescence microscope (Carl Zeiss, Oberkochen, Germany).

HaCaT cells [2] = assay: Cell cycle analysis (PI, flow cytometry); conditions: 24 h, Figure 5(a)
Experimental: HaCaT cells were treated with DHNA for 24 h, fixed with 75% ice-cold ethanol at 4°C for 1 h and stained with PI/RNase solution (BD Pharmingen) for 15 min at room temperature in the dark. Stained cells were analyzed using the FACSCanto flow cytometer immediately. Cell cycle distribution was calculated with ModFit LT 3.1 (Verity Software House, Topsham, ME, USA).

[3] = tested on: AIF and endoG in HaCaT cells; assay: Immunofluorescence staining of AIF and endoG; conditions: 240 μM (49.01 μg/mL), 24 h
Experimental: HaCaT cells were first seeded on cover-slipped 6 well plates. After DHNA treatment, cells were washed three times with PBS and fixed in 1 : 1 acetone/methanol at −20°C for 10 min. Thereafter, cells were washed with PBS three times and then blocked for 15 min in blocking solution (1% BSA in PBS) at room temperature. After that, cells were incubated with either one of the following antibodies in blocking solution overnight at 4°C: apoptosis inducing factor, AIF or endonuclease G, and endoG. Cells were then washed with PBS three times and incubated with corresponding secondary antibody conjugated to Alexa Fluor 488 (Molecular Probes) in blocking solution in dark at room temperature for 1 h. After further washing with PBS for three times, the cover slips were then mounted on glass slides using the Vectashield mounting medium with DAPI (Vector Laboratories, Burlingame, CA). Stained cells were then visualized under the Nikon Ti-E inverted microscope (Nikon, Tokyo, Japan).

HaCaT cells [4] = assay: Annexin V/propidium iodide staining, flow cytometry; conditions: for viability at 30 µM / viability at 60 µM / viability at 120 µM / viability at 240 µM: Homo sapiens, HaCaT, read-out: viable cells (FITC−/PI−, lower left)
Experimental: After DHNA treatment, HaCaT cells were resuspended in annexin V binding buffer (10 mM HEPES, 140 mM NaCl, and 2.5 mM CaCl2, pH 7.4) and then incubated with FITC-conjugated annexin V (Biosource International, Inc., USA), and 0.5 μg/mL propidium iodide (PI) for 15 min at room temperature in the dark. Cells were analyzed on a FACSCanto flow cytometer (BD Biosciences, San Jose, CA, USA) immediately and then analyzed using WinMDI 2.9 (developed by Dr. J. Trotter, Scripps Institute, La Jolla, CA, USA). The total number of early (FITC+/PI−) and late (FITC+/PI+) apoptotic cells was assessed. In another experiment, HaCaT cells were preincubated with 40 μM pan-caspase inhibitor Z-VAD-FMK (BD Pharmingen, San Diego, CA, USA) for 1 h before exposure to DHNA.

HaCaT cells [5] = assay: DNA fragmentation, Cell Death Detection ELISAplus; conditions: 240 μM (49.01 μg/mL)
Experimental: After incubation of HaCaT cells with DHNA, subsequent experimental steps were following the protocol of the Cell Death Detection ELISA^plus (Roche Applied Science, Basel, Switzerland). Absorbance was measured at 405/490 nm by the Sunrise microplate spectrophotometer. Enrichment of mono- and oligonucleosomes (cytoplasmic histone-associated DNA fragments) into the cytoplasm was calculated as absorbance of treatment cells/absorbance of control (enrichment factor) which was used as a parameter of apoptosis.

HaCaT cells [6] = assay: TUNEL assay, flow cytometry; conditions: 24 h
Experimental: After DHNA treatment, HaCaT cells were collected and washed and subsequent steps were following the protocol of In Situ Cell Death Detection kit, Fluorescein (Roche Applied Science). Fluorescein-labeled DNA strand breaks were detected by flow cytometry. The percentage of hypodiploid (fragmented) nuclei reflecting relative proportion of apoptotic cells was analyzed by WinMDI 2.9.

HaCaT cells [7] = assay: JC-1 staining, mitochondrial membrane potential
Experimental: After DHNA treatment, HaCaT cells were harvested and washed with PBS. Cells were then incubated in 1.5 μM JC-1 (5,5′,6,6′-tetrachloro-1,1′,3,3′-tetraethylbenzimidazolylcarbocyanine iodide, Molecular Probes) in PBS at 37°C for 15 min in the dark. Thereafter cells were washed, resuspended in PBS and then immediately analyzed on the FACSCanto flow cytometer. If mitochondrial membrane potential (MMP) depolarizes, JC-1 becomes a monomer and emits green fluorescence; when MMP polarizes, JC-1 becomes a polymer and emits red fluorescence. It indicates mitochondria depolarization by a decrease in red/green fluorescence intensity ratio.

How did the “nuclear morphology (Hoechst 33342)” value (HaCaT cells [1]; 120 μM (24.5 μg/mL)) turn out when O=C(O)c1cc(O)c2ccccc2c1O [DHNA, 1,4-dihydroxy-2-naphthoic acid] was run?
The value was “light blue/white fluorescence was emitted from the nuclei of all cells”.

And the “nuclear fragmentation (Hoechst 33342)” value (HaCaT cells [1]; 30, 60 and 120 μM)?
The value was “nuclear fragmentation was also observed”.

And the “nuclear morphology (Hoechst 33342)” value (HaCaT cells [1]; 30 and 60 μM)?
The value was “chromatin condensation”.

And the G0/G1 cell population (HaCaT cells [2]; 60 μM (12.25 μg/mL))?
The G0/G1 cell population was 39.3%.

And the G2/M phase cells (HaCaT cells [2]; 60 μM (12.25 μg/mL))?
The G2/M phase cells was 12.4%.

What about the G0/G1 cell population (HaCaT cells [2]; 120 μM (24.5 μg/mL)) of the same compound?
Its G0/G1 cell population is 51.0%.

What about the G2/M phase cells (HaCaT cells [2]; 120 μM (24.5 μg/mL)) of the same compound?
Its G2/M phase cells is 9.4%.

And the S phase cells (HaCaT cells [2]; 120 μM (24.5 μg/mL))?
Its S phase cells is 39.6%.

And the sub-G0/G1 population (HaCaT cells [2]; 120 μM (24.5 μg/mL))?
Its sub-G0/G1 population is 19.7%.

What about the “localization of AIF and endoG” value [3] of the same compound?
Its value is “translocated to the nucleus”.

What about the “total apoptotic fraction (early plus late apoptotic cells)” value (from here on “total apoptotic fraction”) (HaCaT cells [4]; 30 μM/6.13 μg/mL, 9 h) of the same compound?
The value was 10.4%.

And the “total apoptotic fraction” value (HaCaT cells [4]; 30 μM/6.13 μg/mL, 24 h)?
The value was 13.7%.

And the “total apoptotic fraction” value (HaCaT cells [4]; 240 μM/49.01 μg/mL, 9 h)?
Its value is 45.5%.

And the “total apoptotic fraction” value (HaCaT cells [4]; 240 μM/49.01 μg/mL, 24 h)?
Its value is 89.7%.

What about the viability at 30 µM (HaCaT cells [4]; 9 h) of the same compound?
The viability at 30 µM was 88.9%.

And the viability at 30 µM (HaCaT cells [4]; 24 h)?
The viability at 30 µM was 85%.

And the viability at 60 µM (HaCaT cells [4]; 9 h)?
Its viability at 60 µM is 86.2%.

And the viability at 60 µM (HaCaT cells [4]; 24 h)?
The viability at 60 µM was 77.5%.

What about the viability at 120 µM (HaCaT cells [4]; 9 h) of the same compound?
The viability at 120 µM was 81.8%.

And the viability at 120 µM (HaCaT cells [4]; 24 h)?
Its viability at 120 µM is 50.2%.

What about the viability at 240 µM (HaCaT cells [4]; 9 h) of the same compound?
Its viability at 240 µM is 44.3%.

And the viability at 240 µM (HaCaT cells [4]; 24 h)?
Its viability at 240 µM is 8.8%.

And the “increase of DNA fragmentation compared with vehicle control” value (HaCaT cells [5]; 24 h)?
The value was “approximately 3.4 folds”.

What about the “increase of DNA fragmentation compared with vehicle control” value (HaCaT cells [5]; 48 h) of the same compound?
The value was ~5.2 folds.

What about the TUNEL positive cells (HaCaT cells [6]; 30 μM/6.13 μg/mL) of the same compound?
Its TUNEL positive cells is 15.8%.

And the TUNEL positive cells (HaCaT cells [6]; 240 μM/49.01 μg/mL)?
Its TUNEL positive cells is 92.7%.

And the “MMP (red/green JC-1 fluorescence ratio) compared with vehicle control” value (from here on “MMP (red/green JC-1 fluorescence ratio)”) (HaCaT cells [7]; 30 μM/6.13 μg/mL, 24 h)?
The value was 103.3%.

What about the “MMP (red/green JC-1 fluorescence ratio)” value (HaCaT cells [7]; 30 μM/6.13 μg/mL, 48 h) of the same compound?
Its value is 95.5%.

And the “MMP (red/green JC-1 fluorescence ratio)” value (HaCaT cells [7]; 240 μM/49.01 μg/mL, 24 h)?
The value was 35.4%.

And the “MMP (red/green JC-1 fluorescence ratio)” value (HaCaT cells [7]; 240 μM/49.01 μg/mL, 48 h)?
The value was 29.2%.

Source: paper PMC3638593, “1,4-dihydroxy-2-naphthoic Acid Induces Apoptosis in Human Keratinocyte: Potential Application for Psoriasis Treatment” (Evidence-based Complementary and Alternative Medicine : eCAM, 2013)
